The test addresses Kv7.2/7.3 (Homo sapiens, UniProt O43525+O43526). The experiment in a line: Kv7.2/7.3 Thallium Flux Assay. The test is classed as cell-based. Also noted: host or cells: HEK cells, tetracycline-inducible expression. Conditions: read-out: Kv7.2/7.3 Activity: EC50 of Kv7.2/Kv7.3 activation. The source says:
The Thallium Flux Assay is used as a surrogate indicator of potassium channel activity.
The experimental protocol was adapted from the FluxOR™ II Green Potassium Ion Channel Assay User Guide (Pub. No. MAN0016084, Invitrogen). Conditions were optimized for the Kv7.2/7.3 cell line.
The hKV7.2/7.3 cell line was obtained from Chantest (Cleveland, Ohio 44128) cat. #CT6147.
Kv7.2/7.3 cells were maintained in a media containing DMEM/F12; 50/50 (GIBCO cat. #11330), 10% Fetal Bovine Serum (FBS) (GIBCO cat. #26140), 100 units/mL Penicillin-Streptomycin (GIBCO cat. #15140), 0.005 mg/ml Blasticidin (SIGMA 15205), 0.5 mg/mL Geneticin (GIBCO cat. #10131), and 0.1 mg/mL Zeocin (GIBCO cat. #R25001). One day prior to experimentation, cells were plated in 96 well clear bottom plates (Corning cat. #353219) in a media without Blasticidin, Geneticin, or Zeocin. Channel expression was induced by adding tetracycline (Bioline cat. #BIO87030) at a final concentration of 10 ng/mL.
The test compound is diluted in a mixture of 0.1% DMSO/extracellular solution with an eight-point concentration range from 0.014 μM to 30 μM. Serial dilutions were made on a Biomek NXP (BECKMAN COULTER).
Measurement and Data Analysis:
A plate reader (Enspire, Perkin Elmer) is used to characterize the ion-channel modulating properties of novel compounds using an excitation wavelength of 475 nm and an emission wavelength of 530 nm. After a 15 sec baseline measurement, the stimulus buffer containing thallium and potassium is injected. A final endpoint measure is taken after 90 sec. Responses are normalized to positive control (retigabine, 30 µM max). Mean normalized responses at each concentration tested are fit to the standard Hill equation to generate an EC50 and maximal response.

SMILES strings stand for the structures.

With `CC(C(=O)Nc1nc2cc(F)c(F)cc2n1C1(C)CCC1)C1(C(F)(F)F)CC1` (single isomer, unassigned) [Example 540, N-(5,6-difluoro-1-(1-methylcyclobutyl)-1H-benzo[d]imidazol-2-yl)-2-(1-(trifluoromethyl)cyclopropyl)propanamide], the EC50 was below 1000 nM.

For `CC1(n2c(NC(=O)CC3CC(F)(F)C3(F)F)nc3cc(F)cc(C#N)c32)CCC1` (single isomer, unassigned) [Example 546, N-(7-cyano-5-fluoro-1-(1-methylcyclobutyl)-1H-benzo[d]imidazol-2-yl)-2-(2,2,3,3-tetrafluorocyclobutyl)acetamide], the EC50 is below 1000 nM.

Turning to `CC1(n2c(NC(=O)CC3(C(F)(F)F)CC3)nc3cc(F)c(F)c(F)c32)CCC1` [Example 534, N-(5,6,7-trifluoro-1-(1-methylcyclobutyl)-1H-benzo[d]imidazol-2-yl)-2-(1-(trifluoromethyl)cyclopropyl)acetamide], the EC50 is below 1000 nM.

Consider `CC(C(=O)Nc1nc2c(F)cc(C#N)c(F)c2n1C1(C)CCC1)C1(C(F)(F)F)CC1` (single isomer, unassigned) [Example 543, N-(6-cyano-4,7-difluoro-1-(1-methylcyclobutyl)-1H-benzo[d]imidazol-2-yl)-2-(1-(trifluoromethyl)cyclopropyl)propanamide], for which the EC50 was below 1000 nM.

For `COc1cc(C#N)cc2c1nc(NC(=O)CC1CC(F)(F)C1(F)F)n2C(C)(C)C` (single isomer, unassigned) [Example 506, N-(1-(tert-butyl)-6-cyano-4-methoxy-1H-benzo[d]imidazol-2-yl)-2-(2,2,3,3-tetrafluorocyclobutyl)acetamide], the EC50 was below 1000 nM.

`CC(C)(C)n1c(NC(=O)CC2CC(F)(F)C2(F)F)nc2cc(F)ccc21` (single isomer, unassigned) [Example 529, N-(1-(tert-butyl)-5-fluoro-1H-benzo[d]imidazol-2-yl)-2-(2,2,3,3-tetrafluorocyclobutyl)acetamide]: the EC50 is below 1000 nM.

For the molecule `CC(C(=O)Nc1nc2ccc(C(C)(C)O)cc2n1C1(C)CCC1)C1(C(F)(F)F)CC1` (single isomer, unassigned) [Example 489, N-(6-(2-hydroxypropan-2-yl)-1-(1-methylcyclobutyl)-1H-benzo[d]imidazol-2-yl)-2-(1-(trifluoromethyl)cyclopropyl) propanamide], the EC50 is below 1000 nM.

Turning to `CC(C)(CC(=O)Nc1nc2cc(F)c(F)cc2n1C1(C)CCC1)C(F)F` [Example 533, N-(5,6-difluoro-1-(1-methylcyclobutyl)-1H-benzo[d]imidazol-2-yl)-4,4-difluoro-3,3-dimethylbutanamide], the EC50 was below 1000 nM.

Consider `CC(C(=O)Nc1nc2c(F)cc(C#N)cc2n1C1(C)CCC1)C1(C(F)(F)F)CC1` (single isomer, unassigned) [Example 494, N-(6-cyano-4-fluoro-1-(1-methylcyclobutyl)-1H-benzo[d]imidazol-2-yl)-2-(1-(trifluoromethyl)cyclopropyl)propanamide], for which the EC50 was below 1000 nM.

`COc1cc(C#N)cc2c1nc(NC(=O)CC1CC(F)(F)C1(F)F)n2C(C)(C)C` (stereo not drawn) [Example 514, N-(1-(tert-butyl)-6-cyano-4-methoxy-1H-benzo[d]imidazol-2-yl)-2-(2,2,3,3-tetrafluorocyclobutyl)acetamide]: the EC50 was below 1000 nM.

As for `CC1(n2c(NC(=O)CC3CC(F)(F)C3(F)F)nc3c(F)cc(C#N)c(F)c32)CCC1` (single isomer, unassigned) [Example 504, N-(6-cyano-4,7-difluoro-1-(1-methylcyclobutyl)-1H-benzo[d]imidazol-2-yl)-2-(2,2,3,3-tetrafluorocyclobutyl)acetamide], the EC50 is below 1000 nM.

Consider `C=Cc1c(F)ccc2nc(NC(=O)CC(C)(C)C)n(C3CCC3)c12` [Example 552, N-(1-cyclobutyl-6-fluoro-7-vinyl-1H-benzo[d]imidazol-2-yl)-3,3-dimethylbutanamide], for which the EC50 is below 1000 nM.

As for `CC1(n2c(NC(=O)CC3CC(F)(F)C3(F)F)nc3ccc(F)c(C#N)c32)CCC1` (single isomer, unassigned) [Example 536, N-(7-cyano-6-fluoro-1-(1-methylcyclobutyl)-1H-benzo[d]imidazol-2-yl)-2-(2,2,3,3-tetrafluorocyclobutyl)acetamide], the EC50 was below 1000 nM.

On to `CC(C)(CC(=O)Nc1nc2cc(F)cc(C#N)c2n1C1(C)CCC1)C1CC1` [Example 547, N-(7-cyano-5-fluoro-1-(1-methylcyclobutyl)-1H-benzo[d]imidazol-2-yl)-3-cyclopropyl-3-methylbutanamide], for which the EC50 was below 1000 nM.

As to `CC(C(=O)Nc1nc2c(F)cc(C#N)cc2n1C1(C)CCC1)C(C)(C)C(F)(F)F` (single isomer, unassigned) [Example 562, N-(6-cyano-4-fluoro-1-(1-methylcyclobutyl)-1H-benzo[d]imidazol-2-yl)-4,4,4-trifluoro-2,3,3-trimethylbutanamide], the EC50 was below 1000 nM.

In the case of `CC(C)(C)CC(=O)Nc1nc2ccc(F)c(Br)c2n1C1(C)CCC1` [Example 550, N-(7-bromo-6-fluoro-1-(1-methylcyclobutyl)-1H-benzo[d]imidazol-2-yl)-3,3-dimethylbutanamide], the EC50 was below 1000 nM.

As for `CC1(n2c(NC(=O)CC3(C(F)(F)F)CC3)nc3cc(F)ccc32)CCC1` [Example 527, N-(5-fluoro-1-(1-methylcyclobutyl)-1H-benzo[d]imidazol-2-yl)-2-(1-(trifluoromethyl)cyclopropyl)acetamide], the EC50 was below 1000 nM.

Regarding `CC(C)(C)CC(=O)Nc1nc2ccc(C3(O)CCC3)c(OC(F)(F)F)c2n1C1CCC1` [Example 487, N-(1-cyclobutyl-6-(1-hydroxycyclobutyl)-7-(trifluoromethoxy)-1H-benzo[d]imidazol-2-yl)-3,3-dimethylbutanamide], the EC50 is below 1000 nM.

`CC1(n2c(NC(=O)CC(C)(C)C(F)(F)F)nc3ccc(Cl)c(F)c32)CCC1` [Example 555, N-(6-chloro-7-fluoro-1-(1-methylcyclobutyl)-1H-benzo[d]imidazol-2-yl)-4,4,4-trifluoro-3,3-dimethylbutanamide]: the EC50 is below 1000 nM.

Regarding `COc1cc(C#N)cc2c1nc(NC(=O)C13CCC(C1)C3)n2C(C)(C)C` [Example 510, N-(1-(tert-butyl)-6-cyano-4-methoxy-1H-benzo[d]imidazol-2-yl)bicyclo[2.1.1]hexane-1-carboxamide], the EC50 fell in the range of 1000 to 3000 nM.

In the case of `CC(C(=O)Nc1nc2c(F)cc(C(C)(C)O)cc2n1C1CCC1)C1(C(F)(F)F)CC1` (single isomer, unassigned) [Example 497, N-(1-cyclobutyl-4-fluoro-6-(2-hydroxypropan-2-yl)-1H-benzo[d]imidazol-2-yl)-2-(1-(trifluoromethyl)cyclopropyl)propanamide], the EC50 is below 1000 nM.

With `CC1(n2c(NC(=O)CC3CC(F)(F)C3(F)F)nc3ccc(F)c(C#N)c32)CCC1` (single isomer, unassigned) [Example 537, N-(7-cyano-6-fluoro-1-(1-methylcyclobutyl)-1H-benzo[d]imidazol-2-yl)-2-(2,2,3,3-tetrafluorocyclobutyl)acetamide], the EC50 was below 1000 nM.

Consider `COc1cc(C#N)cc2c1nc(NC(=O)CC1(C(F)(F)F)CC1)n2C(C)(C)C` [Example 520, N-(1-(tert-butyl)-6-cyano-4-methoxy-1H-benzo[d]imidazol-2-yl)-2-(1-(trifluoromethyl)cyclopropyl)acetamide], for which the EC50 lay within 3000 to 10000 nM.

Turning to `CC(C(=O)Nc1nc2c(F)cc(C(C)(C)O)cc2n1C1CCC1)C(C)(C)C(F)(F)F` (single isomer, unassigned) [Example 515, N-(1-cyclobutyl-4-fluoro-6-(2-hydroxypropan-2-yl)-1H-benzo[d]imidazol-2-yl)-4,4,4-trifluoro-2,3,3-trimethylbutanamide], the EC50 is below 1000 nM.

With `CC1(n2c(NC(=O)CC3(C(F)(F)F)CC3)nc3c(F)cc(C#N)cc32)CCC1` [Example 561, N-(6-cyano-4-fluoro-1-(1-methylcyclobutyl)-1H-benzo[d]imidazol-2-yl)-2-(1-(trifluoromethyl)cyclopropyl)acetamide], the EC50 was below 1000 nM.

With `CC(C)(O)c1cc(F)c2nc(NC(=O)CC3CC(F)(F)C3(F)F)n(C3(C)CCC3)c2c1` (single isomer, unassigned) [Example 500, N-(4-fluoro-6-(2-hydroxypropan-2-yl)-1-(1-methylcyclobutyl)-1H-benzo[d]imidazol-2-yl)-2-(2,2,3,3-tetrafluorocyclobutyl)acetamide], the EC50 is below 1000 nM.

On to `CC1(n2c(NC(=O)CC3CC(F)(F)C3(F)F)nc3cc(F)cc(F)c32)CCC1` (single isomer, unassigned) [Example 523, N-(5,7-difluoro-1-(1-methylcyclobutyl)-1H-benzo[d]imidazol-2-yl)-2-(2,2,3,3-tetrafluorocyclobutyl)acetamide], for which the EC50 is below 1000 nM.

Values taken from patent US10851067B2, “Kv7 channel activators compositions and methods of use” (Knopp Biosciences LLC, priority 2018, dated 2020).
